Reference: PMC9181982, “Biphenyl Ether Analogs Containing Pomalidomide as Small-Molecule Inhibitors of the Programmed Cell Death-1/Programmed Cell Death-Ligand 1 Interaction” (Molecules, 2022)
“Also recorded” adds a separate entry of the source.

Target: T1, PD-L1 in MDA-MB-231 cells (Homo sapiens, UniProt Q9NZQ7)
T1 construct: host or cells: MDA-MB-231
Assay: Western blot of PD-L1 expression in MDA-MB-231 cells
Type: cell-based
Conditions: MDA-MB-231 cells treated for 6 or 24 h
Description: The cell lysates were prepared with a RIPA buffer (Sigma-Aldrich) containing Protease Inhibitor Cocktail (Sigma-Aldrich, St. Louis, MO, USA) and separated by 12% SDS-PAGE (TGX™ FastCast™ Acrylamide Kit, Bio-Rad, Hercules, CA, USA). The proteins were transferred to a PVDF membrane (Merck Millipore, Burlington, MA, USA) using a Mini Trans-Blot® Cell system (Bio-Rad, Hercules, CA, USA). The membranes were incubated with 4% (m/v) bovine serum albumin (BioShop, Burlington, Ontario, Canada) in a TBS buffer containing 0.1% (v/v) Nonidet P-40 (BioShop, Burlington, Ontario, Canada) at RT for 1 h. Then, the membranes were incubated with a specific primary antibody at 4 °C overnight. Following three washes in TBS-N, a secondary horseradish peroxidase (HRP)-conjugated antibody was applied for 1 h at RT. […]
Figure 2 Bioactivity of the indicated compounds. (A,B) The activity was monitored with a cell-based immune checkpoint blockade (ICB) assay. […] The cells were co-cultured for 6 h and the luminescence signal was measured following the addition of the Bio-Glo substrate. The graphs show fold induction calculated versus either DMSO-treated (for small molecules) or untreated (for durvalumab) control (ctrl) cells. […]

T1 sequence (Q9NZQ7 19-290): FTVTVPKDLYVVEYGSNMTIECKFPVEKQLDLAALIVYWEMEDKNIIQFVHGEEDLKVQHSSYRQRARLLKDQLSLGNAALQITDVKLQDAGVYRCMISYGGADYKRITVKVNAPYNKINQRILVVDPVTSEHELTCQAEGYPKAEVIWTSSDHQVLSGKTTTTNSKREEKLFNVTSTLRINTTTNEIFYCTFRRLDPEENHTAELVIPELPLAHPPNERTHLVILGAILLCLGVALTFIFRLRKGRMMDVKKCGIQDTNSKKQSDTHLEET

Row | Structure (SMILES) | Downregulation of PD-L1 expression (Western blot)
1 | COc1nc(OCc2cccc(-c3ccccc3)c2C)ccc1CNCCCNc1cccc2c1C(=O)N(C1CCC(=O)NC1=O)C2=O (centres unmarked) [compound 5, 2-(2,6-dioxopiperidin-3-yl)-4-((3-(((2-methoxy-6-((2-methyl-[1,1′-biphenyl]-3-yl)methoxy)pyridin-3-yl)methyl)amino)propyl)amino)isoindoline-1,3-dione] | not related to the downregulation of PD-L1 expression; also recorded: unrelated to the downregulation of PD-L1 expression
2 | COc1nc(OCc2cccc(-c3ccccc3)c2C)ccc1CNCC1CCN(CC(=O)Nc2cccc3c2C(=O)N(C2CCC(=O)NC2=O)C3=O)CC1 (centres unmarked) [compound 4, N-(2-(2,6-dioxopiperidin-3-yl)-1,3-dioxoisoindolin-4-yl)-2-(4-((((2-methoxy-6-((2-methyl-[1,1′-biphenyl]-3-yl)methoxy)pyridin-3-yl)methyl)amino)methyl)piperidin-1-yl)acetamide] | not related to the downregulation of PD-L1 expression; also recorded: unrelated to the downregulation of PD-L1 expression
